Assays:
MOLT-4 = assay: SRB cytotoxicity screening assay (Leukemia)
M14 = assay: SRB cytotoxicity screening assay (Melanoma)
HCT-116 = assay: SRB cytotoxicity screening assay (Colon Cancer)
KM12 = assay: SRB cytotoxicity screening assay (Colon Cancer)
EKVX = assay: SRB cytotoxicity screening assay (Non-Small Cell Lung Cancer)
UACC-257 = assay: SRB cytotoxicity screening assay (Melanoma)
HL-60(TB) = HL-60(TB) (Leukemia); PG=0; 48 hour incubation
NCI-H322M [1] = assay: cells; conditions: Homo sapiens, 48 h, read-out: Log10 GI50 (converted)
RXF-393 = assay: SRB cytotoxicity screening assay (Renal Cancer); conditions: Homo sapiens, RXF 393, 48 h
MCF7/ADR-RES = assay: SRB cytotoxicity screening assay (Breast Cancer)
SK-MEL-28 = assay: SRB cytotoxicity screening assay (Melanoma)
OVCAR-5 = assay: SRB cytotoxicity screening assay (Ovarian)
LOX-IMVI = LOX-IMVI (Melanoma); PG=0; 48 hour incubation
HT29 = assay: SRB cytotoxicity screening assay (Colon Cancer)
RPMI-8226 = assay: SRB cytotoxicity screening assay (Leukemia); conditions: Homo sapiens, RPMI-8226, 48 h
SNB-19 = assay: SRB cytotoxicity screening assay (CNS Cancer)
HCC-2998 = assay: SRB cytotoxicity screening assay (Colon Cancer)
K-562 = assay: SRB cytotoxicity screening assay (Leukemia)
SK-MEL-2 = assay: SRB cytotoxicity screening assay (Melanoma)
NCI-H322M [2] = conditions: NCI-H322M (Non-Small Cell Lung Cancer); PG=0; 48 hour incubation
SW-620 = assay: SRB cytotoxicity screening assay (Colon Cancer)
MCF7 = assay: SRB cytotoxicity screening assay (Breast Cancer)
CAKI-1 = assay: SRB cytotoxicity screening assay (Renal Cancer)
SR = assay: SRB cytotoxicity screening assay (Leukemia); conditions: Homo sapiens, SR, 48 h
MALME-3M = assay: SRB cytotoxicity screening assay (Melanoma)
TK-10 = assay: SRB cytotoxicity screening assay (Renal Cancer)
[3] = read-out: Log10 GI50 (converted)
[4] = read-out: Log10 LC50 (converted)
[5] = Homo sapiens, MCF7, 48 h, read-out: Log10 GI50 (converted)
[6] = Homo sapiens, MCF7, 48 h, read-out: Log10 LC50 (converted)

SMILES: CCCCCC(=O)O[C@H]1C[C@H]2OC[C@@]2(OC(C)=O)[C@H]2[C@H](OC(=O)c3ccccc3)[C@]3(O)C[C@H](OC(=O)[C@H](O)[C@@H](NC(=O)c4ccccc4)c4ccccc4)C(C)=C([C@@H](OC(C)=O)C(=O)[C@]12C)C3(C)C [7-hexanoyltaxol]
- GI50 (MOLT-4; Homo sapiens, MOLT-4, 48 h, read-out: Log10 GI50 (converted)): < 0.01 µM
- CC50 (MOLT-4; Homo sapiens, MOLT-4, 48 h, read-out: Log10 LC50 (converted)): > 100 µM
- Log10 TGI (MOLT-4; MOLT-4 (Leukemia), PG=0, 48 hour incubation): −4.69 molar
- GI50 (M14; Homo sapiens, M14, 48 h, read-out: Log10 GI50 (converted)): < 0.01 µM
- CC50 (M14; Homo sapiens, M14, 48 h, read-out: Log10 LC50 (converted)): 1.58 µM
- Log10 TGI (M14; M14 (Melanoma), PG=0, 48 hour incubation): −7.94 molar
- Log10 TGI (HCT-116; HCT-116 (Colon Cancer), PG=0, 48 hour incubation): −4.94 molar
- GI50 (HCT-116; Homo sapiens, HCT-116, 48 h, read-out: Log10 GI50 (converted)): < 0.01 µM
- CC50 (HCT-116; Homo sapiens, HCT-116, 48 h, read-out: Log10 LC50 (converted)): > 100 µM
- GI50 (KM12; Homo sapiens, KM12, 48 h, read-out: Log10 GI50 (converted)): < 0.01 µM
- CC50 (KM12; Homo sapiens, KM12, 48 h, read-out: Log10 LC50 (converted)): > 100 µM
- Log10 TGI (KM12; KM12 (Colon Cancer), PG=0, 48 hour incubation): −4.90 molar
- Log10 TGI (EKVX; EKVX (Non-Small Cell Lung Cancer), PG=0, 48 hour incubation): −4.29 molar
- GI50 (EKVX; Homo sapiens, EKVX, 48 h, read-out: Log10 GI50 (converted)): 0.398 µM
- CC50 (EKVX; Homo sapiens, EKVX, 48 h, read-out: Log10 LC50 (converted)): > 100 µM
- CC50 (UACC-257; Homo sapiens, UACC-257, 48 h, read-out: Log10 LC50 (converted)): > 100 µM
- Log10 TGI (UACC-257; UACC-257 (Melanoma), PG=0, 48 hour incubation): −4.00 molar
- Log10 TGI (HL-60(TB)): <−8.00 molar
- GI50 (NCI-H322M [1]): 0.02 µM
- GI50 (RXF-393; [3]): < 0.01 µM
- CC50 (RXF-393; [4]): 91.2 µM
- GI50 (MCF7/ADR-RES; [5]): 1.12 µM
- CC50 (MCF7/ADR-RES; [6]): > 100 µM
- Log10 TGI (MCF7/ADR-RES; MCF7/ADR-RES (Breast Cancer), PG=0, 48 hour incubation): −4.80 molar
- GI50 (SK-MEL-28; Homo sapiens, SK-MEL-28, 48 h, read-out: Log10 GI50 (converted)): < 0.01 µM
- CC50 (SK-MEL-28; Homo sapiens, SK-MEL-28, 48 h, read-out: Log10 LC50 (converted)): > 100 µM
- Log10 TGI (SK-MEL-28; SK-MEL-28 (Melanoma), PG=0, 48 hour incubation): −4.33 molar
- GI50 (OVCAR-5; Homo sapiens, OVCAR-5, 48 h, read-out: Log10 GI50 (converted)): < 0.01 µM
- CC50 (OVCAR-5; Homo sapiens, OVCAR-5, 48 h, read-out: Log10 LC50 (converted)): 33.9 µM
- Log10 TGI (OVCAR-5; OVCAR-5 (Ovarian), PG=0, 48 hour incubation): −5.47 molar
- Log10 TGI (LOX-IMVI): −4.68 molar
- Log10 TGI (HT29; HT29 (Colon Cancer), PG=0, 48 hour incubation): −4.95 molar
- GI50 (HT29; Homo sapiens, HT-29, 48 h, read-out: Log10 GI50 (converted)): < 0.01 µM
- CC50 (HT29; Homo sapiens, HT-29, 48 h, read-out: Log10 LC50 (converted)): 33.1 µM
- GI50 (RPMI-8226; [3]): < 0.01 µM
- CC50 (RPMI-8226; [4]): > 100 µM
- GI50 (SNB-19; Homo sapiens, SNB-19, 48 h, read-out: Log10 GI50 (converted)): 0.0102 µM
- CC50 (SNB-19; Homo sapiens, SNB-19, 48 h, read-out: Log10 LC50 (converted)): > 100 µM
- Log10 TGI (SNB-19; SNB-19 (CNS Cancer), PG=0, 48 hour incubation): −4.53 molar
- Log10 TGI (HCC-2998; HCC-2998 (Colon Cancer), PG=0, 48 hour incubation): −7.35 molar
- GI50 (HCC-2998; Homo sapiens, HCC 2998, 48 h, read-out: Log10 GI50 (converted)): < 0.01 µM
- CC50 (HCC-2998; Homo sapiens, HCC 2998, 48 h, read-out: Log10 LC50 (converted)): 8.32 µM
- GI50 (K-562; Homo sapiens, K562, 48 h, read-out: Log10 GI50 (converted)): < 0.01 µM
- CC50 (K-562; Homo sapiens, K562, 48 h, read-out: Log10 LC50 (converted)): > 100 µM
- Log10 TGI (K-562; K-562 (Leukemia), PG=0, 48 hour incubation): −7.05 molar
- GI50 (SK-MEL-2; Homo sapiens, SK-MEL-2, 48 h, read-out: Log10 GI50 (converted)): 0.0933 µM
- CC50 (SK-MEL-2; Homo sapiens, SK-MEL-2, 48 h, read-out: Log10 LC50 (converted)): > 100 µM
- Log10 TGI (SK-MEL-2; SK-MEL-2 (Melanoma), PG=0, 48 hour incubation): −4.56 molar
- Log10 TGI (NCI-H322M [2]): −4.51 molar
- GI50 (SW-620; Homo sapiens, SW-620, 48 h, read-out: Log10 GI50 (converted)): < 0.01 µM
- CC50 (SW-620; Homo sapiens, SW-620, 48 h, read-out: Log10 LC50 (converted)): > 100 µM
- Log10 TGI (SW-620; SW-620 (Colon Cancer), PG=0, 48 hour incubation): >−4.00 molar
- GI50 (MCF7; [5]): < 0.01 µM
- CC50 (MCF7; [6]): > 100 µM
- Log10 TGI (MCF7; MCF7 (Breast Cancer), PG=0, 48 hour incubation): −4.73 molar
- Log10 TGI (CAKI-1; CAKI-1 (Renal Cancer), PG=0, 48 hour incubation): −4.52 molar
- GI50 (CAKI-1; Homo sapiens, CAKI-1, 48 h, read-out: Log10 GI50 (converted)): 0.263 µM
- CC50 (CAKI-1; Homo sapiens, CAKI-1, 48 h, read-out: Log10 LC50 (converted)): > 100 µM
- GI50 (SR; [3]): < 0.01 µM
- CC50 (SR; [4]): > 100 µM
- GI50 (MALME-3M; Homo sapiens, Malme-3M, 48 h, read-out: Log10 GI50 (converted)): < 0.01 µM
- CC50 (MALME-3M; Homo sapiens, Malme-3M, 48 h, read-out: Log10 LC50 (converted)): 81.3 µM
- Log10 TGI (MALME-3M; MALME-3M (Melanoma), PG=0, 48 hour incubation): −4.65 molar
- GI50 (TK-10; Homo sapiens, TK-10, 48 h, read-out: Log10 GI50 (converted)): 0.0324 µM
- CC50 (TK-10; Homo sapiens, TK-10, 48 h, read-out: Log10 LC50 (converted)): > 100 µM
- Log10 TGI (TK-10; TK-10 (Renal Cancer), PG=0, 48 hour incubation): −4.45 molar

— patent US6753345B2, “7-hexanolytaxol and methods for preparing the same” (Hauser, Inc., priority 1998, dated 2004)
